{
  "source": "paper PMC10600239",
  "about": "“Selective MCL-1 inhibitor ABBV-467 is efficacious in tumor models but is associated with cardiac troponin increases in patients” (Communications Medicine, 2023)",
  "test_system": "OPM-2 xenografts",
  "assay": "OPM-2 xenograft efficacy (tumor volume, body weight)",
  "assay_type": "in vivo, mouse",
  "details": "6.25 mg/kg IV once weekly for 3 weeks",
  "description": "All animal studies were conducted in accordance with the guidelines approved by the Institutional Animal Care and Use Committees of AbbVie. The research protocol was approved by In Vivo Pharmacology at AbbVie prior to study initiation but was not publicly registered or disclosed. Female C.B-17 SCID-beige mice (AMO-1, OPM-2, NCI-H929, and OCI-AML2 xenografts) and female NSG mice (MV4-11-Red.Fluc systemic) were purchased from Charles River Laboratories (Wilmington, MA). Animals were housed in a light cycle-controlled room with HEPA filtration at 22 °C. Animals had nesting and climbing cage topper as the primary environmental enrichment. Animals were inoculated subcutaneously in the right flank with 5 × 10^6 (AMO-1, OPM-2, NCI-H929, and OCI-AML2) or intravenous (IV) with 5 × 10^6 (MV4-11-Red.Fluc). The inoculation volume (0.2 mL) comprised a 50:50 mixture of cells in growth media and Matrigel (BD Biosciences) for subcutaneous injections and 100% phosphate-buffered saline for IV administration. All cell lines used in this publication were authenticated using IDEXX for STR profiling as well as their IMPACT and human IMPACT panels for pathogen screening. Electronic calipers were used to measure the length and width of each tumor 2 to 3 times per week. Tumor volume was estimated by applying the following equation: volume = length × width^2/2. All groups remained blinded during measurements and dosing; only veterinary staff were aware of group identity. When tumors reached approximately 200 mm^3, mice were randomized by match and distributed into treatment and control groups. All xenograft trials were conducted using 5 to 10 mice per group, and all mice were ear tagged and monitored individually throughout the studies. Any animal with a tumor above 2000 mm^3 or 15% loss in body weight was euthanized and removed from the study. Tumor burden in the systemic MV4-11-Red.Fluc experiment was measured using an IVIS® spectrum from PerkinElmer by taking the total photon flux of the entire dorsal side of an individual mouse. Ten minutes prior to imaging, animals received intraperitoneally 0.2 mL of a 15-mg/mL solution of D-Luciferin (PerkinElmer, Catalog #122799) formulated in 100% phosphate-buffered saline. Animals were anesthetized using 3.5% isoflurane and maintained using 2%. Six days after inoculation, animals were imaged and randomized into vehicle and treatment groups at a total flux of ~1 × 10^8. A background control mouse that was tumor naive but received D-Luciferin was placed in the upper left corner of each image. The total flux from this animal was subtracted from the total flux of each animal present in the image.\nFor in vivo studies, maximal tumor growth inhibition (TGI) was calculated as the greatest treatment response using the following equation: Maximal TGI = (1 − mean tumor volume of the treated group/mean tumor volume of the vehicle control group) × 100. The tumor growth delay (TGD) percentage was determined as the percentage increase of the median time period for the treatment group to reach an arbitrary tumor volume of 1000 mm^3 relative to the vehicle control group. […] A power analysis was conducted using historical data to determine the number of animals required to yield significance of 0.05 at a 30% difference. There were no animals excluded. Data from experiments in vivo were analyzed using the student’s t-test for TGI values and the Mann–Whitney U test for TGD using Excel and GraphPad Prism. Fisher’s exact test was used to probe significance of differences in response frequency.",
  "data": [
    {"smiles": "Cc1c(Cl)c2c(Cl)c(C)c1-c1c(-c3ccc(F)cc3)sc3ncnc(c13)O[C@@H](C(=O)O)Cc1cc(ccc1OCc1ccnc(-c3ccc(OC[C@H]4COCCO4)cc3)n1)OC[C@@H](CN1CCN(C)CC1)O2", "note": "[ABBV-467]", "values": [
      {"measurement": "maximal TGD", "value": 82, "unit": "%"}
    ]}
  ]
}
